In BindingDB's records for doi:10.1016/j.bmc.2012.07.032 (Takeda Pharmaceutical, 2012):

Test: Inhibition of VEGFR2 in HUVEC assessed as reduction of VGF-stimulated cell proliferation after 5 days

IC50: 1.2 nM
SMILES: CN(c1ccc(F)c(NC(=O)c2cccc(OC(C)(C)C#N)c2Cl)c1)c1ccc2nc(NC(=O)C3CC3)sc2n1
